Measured values from patent US20120115877A1, “Facially Amphiphilic Compounds, Compositions, And Uses Thereof In Treating Cancer” (POLYMEDIX, INC., priority 2010, published 2012).

Tests used:
Assay type in all cases: cell-based, human
[1] = system: CAKI-1; experiment: NCI-60 screen, Renal Cancer; settings: 10 μM
Procedure: (§1) Several compounds were tested at single concentrations (10 μM) against 59 different human tumor cell lines, representing leukemia, melanoma and cancers of the lung, colon, brain, ovary, breast, prostate, and kidney (see, Table 3). The human tumor cell lines of the cancer screening panel were grown in RPMI 1640 medium containing 5% fetal bovine serum and 2 mM L-glutamine. For a typical screening experiment, cells were inoculated into 96 well microtiter plates in 100 μL at plating densities ranging from 5,000 to 40,000 cells/well depending on the doubling time of individual cell lines. After cell inoculation, the microtiter plates were incubated at 37° C., 5% CO2, 95% air and 100% relative humidity for 24 hours prior to addition of the compounds.
(§2) After 24 hours, two plates of each cell line were fixed in situ with TCA, to represent a measurement of the cell population for each cell line at the time of drug addition (Tz). Compounds were solubilized in dimethyl sulfoxide at 400-fold the desired final maximum test concentration and stored frozen prior to use. At the time of drug addition, an aliquot of frozen concentrate was thawed and diluted to twice the desired final maximum test concentration with complete medium containing 50 μg/ml gentamicin. Additional four, 10-fold or ½ log serial dilutions were made to provide a total of five compound concentrations plus control. Aliquots of 100 μl of these different drug dilutions were added to the appropriate microtiter wells already containing 100 μl of medium, resulting in the required final compound concentrations.
(§3) Following drug addition, the plates were incubated for an additional 48 hours at 37° C., 5% CO2, 95% air, and 100% relative humidity. For adherent cells, the assay was terminated by the addition of cold TCA. Cells were fixed in situ by the gentle addition of 50 μl of cold 50% (w/v) TCA (final concentration, 10% TCA) and incubated for 60 minutes at 4° C. The supernatant was discarded, and the plates were washed five times with tap water and air dried. Sulforhodamine B (SRB) solution (100 μl) at 0.4% (w/v) in 1% acetic acid was added to each well, and plates were incubated for 10 minutes at room temperature. After staining, unbound dye was removed by washing five times with 1% acetic acid and the plates were air dried. Bound stain was subsequently solubilized with 10 mM trizma base, and the absorbance was read on an automated plate reader at a wavelength of 515 nm. For suspension cells, the methodology was the same except that the assay was terminated by fixing settled cells at the bottom of the wells by gently adding 50 μl of 80% TCA (final concentration, 16% TCA). Using the seven absorbance measurements (time zero, (Tz), control growth, (C), and test growth in the presence of drug at the five concentration levels (Ti)), the percentage growth was calculated at each of the compound concentrations levels. Percentage growth inhibition was calculated as:
(§4) [(Ti−Tz)/(C−Tz)]×100 for concentrations for which Ti>/=Tz
(§5) [(Ti−Tz)/Tz]×100 for concentrations for which Ti<Tz.
(§6) Three dose response parameters were calculated for each compound. Growth inhibition of 50% (GI50) was calculated from [(Ti−Tz)/(C−Tz)]×100=50, which is the compound concentration resulting in a 50% reduction in the net protein increase (as measured by SRB staining) in control cells during the compound incubation. The compound concentration resulting in total growth inhibition (TGI) was calculated from Ti=Tz. The LC50 (concentration of compound resulting in a 50% reduction in the measured protein at the end of the compound treatment as compared to that at the beginning) indicating a net loss of cells following treatment was calculated from [(Ti−Tz)/Tz]×100=−50. Values were calculated for each of these three parameters if the level of activity was reached; however, if the effect was not reached or was exceeded, the value for that parameter was expressed as greater or less than the maximum or minimum concentration tested.

[2] = system: ACHN; experiment: NCI-60 screen, Renal Cancer; settings: 10 μM
Procedure: as §1, §2, §3, §4, §5, §6

[3] = system: A498; experiment: NCI-60 screen, Renal Cancer; settings: 10 μM
Procedure: as §1, §2, §3, §4, §5, §6

[4] = system: SN12C; experiment: NCI-60 screen, Renal Cancer; settings: 10 μM
Procedure: as §1, §2, §3, §4, §5, §6

[5] = system: TK-10; experiment: NCI-60 screen, Renal Cancer; settings: 10 μM
Procedure: as §1, §2, §3, §4, §5, §6

[6] = system: UO-31; experiment: NCI-60 screen, Renal Cancer; settings: 10 μM
Procedure: as §1, §2, §3, §4, §5, §6

[7] = system: RXF 393; experiment: NCI-60 screen, Renal Cancer; settings: 10 μM
Procedure: as §1, §2, §3, §4, §5, §6

[8] = system: SF-268; experiment: NCI-60 screen, CNS Cancer; settings: 10 μM
Procedure: as §1, §2, §3, §4, §5, §6

[9] = system: SF-295; experiment: NCI-60 screen, CNS Cancer; settings: 10 μM
Procedure: as §1, §2, §3, §4, §5, §6

[10] = system: SF-539; experiment: NCI-60 screen, CNS Cancer; settings: 10 μM
Procedure: as §1, §2, §3, §4, §5, §6

[11] = system: SNB-75; experiment: NCI-60 screen, CNS Cancer; settings: 10 μM
Procedure: as §1, §2, §3, §4, §5, §6

[12] = system: U251; experiment: NCI-60 screen, CNS Cancer; settings: 10 μM
Procedure: as §1, §2, §3, §4, §5, §6

[13] = system: SNB-19; experiment: NCI-60 screen, CNS Cancer; settings: 10 μM
Procedure: as §1, §2, §3, §4, §5, §6

[14] = system: SK-MEL-5; experiment: NCI-60 screen, Melanoma; settings: 10 μM
Procedure: as §1, §2, §3, §4, §5, §6

[15] = system: MALME-3M; experiment: NCI-60 screen, Melanoma; settings: 10 μM
Procedure: as §1, §2, §3, §4, §5, §6

[16] = system: LOX IMVI; experiment: NCI-60 screen, Melanoma; settings: 10 μM
Procedure: as §1, §2, §3, §4, §5, §6

[17] = system: UACC-257; experiment: NCI-60 screen, Melanoma; settings: 10 μM
Procedure: as §1, §2, §3, §4, §5, §6

[18] = system: MDA-MB-435; experiment: NCI-60 screen, Melanoma; settings: 10 μM
Procedure: as §1, §2, §3, §4, §5, §6

[19] = system: BT-549; experiment: NCI-60 screen, Breast Cancer; settings: 10 μM
Procedure: as §1, §2, §3, §4, §5, §6

[20] = system: MDA-MB-31/ATCC; experiment: NCI-60 screen, Breast Cancer; settings: 10 μM, MDA-MB-231/ATCC
Procedure: as §1, §2, §3, §4, §5, §6

[21] = system: MCF7; experiment: NCI-60 screen, Breast Cancer; settings: 10 μM
Procedure: as §1, §2, §3, §4, §5, §6

[22] = system: T-47D; experiment: NCI-60 screen, Breast Cancer; settings: 10 μM
Procedure: as §1, §2, §3, §4, §5, §6

[23] = system: MDA-MB-468; experiment: NCI-60 screen, Breast Cancer; settings: 10 μM
Procedure: as §1, §2, §3, §4, §5, §6

[24] = system: DU-145; experiment: NCI-60 screen, Prostate Cancer; settings: 10 μM
Procedure: as §1, §2, §3, §4, §5, §6

[25] = system: PC-3; experiment: NCI-60 screen, Prostate Cancer; settings: 10 μM
Procedure: as §1, §2, §3, §4, §5, §6

[26] = system: CCRF-CEM; experiment: NCI-60 screen, Leukemia; settings: 10 μM
Summary of the method: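 Compounds were tested at a single 10 μM concentration on cells grown in RPMI 1640 with 5% FBS and 2 mM L-glutamine, plated 24 h before dosing. After 48 h at 37 °C, cells were TCA-fixed and SRB-stained, and absorbance was read at 515 nm. Percent growth is relative to time-zero and untreated control plates.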

SMILES	Percent Growth [1]	Percent Growth [2]	Percent Growth [3]	Percent Growth [4]	Percent Growth [5]	Percent Growth [6]	Percent Growth [7]	Percent Growth [8]	Percent Growth [9]	Percent Growth [10]	Percent Growth [11]	Percent Growth [12]	Percent Growth [13]	Percent Growth [14]	Percent Growth [15]	Percent Growth [16]	Percent Growth [17]	Percent Growth [18]	Percent Growth [19]	Percent Growth [20]	also measured
NCCCc1cccc(-c2ccc3sc4ccc(-c5cccc(CCCN)c5)cc4c3c2)c1 [Compound D]	82.82%	68.97%	81.64%	84.45%	86.48%	85.61%	81.71%	73.4%	87.17%	98.34%	71.15%	59.7%	79.89%	100.8%	134.1%	26.77%	100%	81.14%	105.8%	60.18%	Percent Growth [21]: −59.63%; Percent Growth [22]: 90.75%; Percent Growth [23]: 17.63%; Percent Growth [24]: 55.35%; Percent Growth [25]: 73.6%; Percent Growth [26]: 5.12%
c1cc(-c2ccc3sc4ccc(-c5ccnc(N6CCNCC6)c5)cc4c3c2)cc(N2CCNCC2)n1 [Compound E]	−13.76%	−69.18%	75.11%	−16.99%	−52.46%	−41.12%	−70.65%	−37.05%	−50.65%	14.26%	−94.79%	−85.72%	−43.97%	63.85%	−4.679%	−80.29%	−70.37%	−84.03%	98.88%	−41.26%	Percent Growth [21]: −89.85%; Percent Growth [22]: −12.27%; Percent Growth [23]: −82.28%; Percent Growth [24]: −97.96%; Percent Growth [25]: −85.11%; Percent Growth [26]: −64.03%
NCCSc1cc(SCCN)c(C(F)(F)F)cc1NC(=O)c1cc(C(=O)Nc2cc(C(F)(F)F)c(SCCN)cc2SCCN)ncn1 [Compound F]	31.42%	20.02%	69.6%	57.46%	21.48%	48.74%	47.68%	32.42%	57.66%	65.73%	−20.24%	23.67%	49.54%	62.3%	80.15%	6.66%	76.46%	70.62%	101.8%	18.87%	Percent Growth [21]: −59.97%; Percent Growth [22]: 34.11%; Percent Growth [23]: −78.28%; Percent Growth [24]: 51.97%; Percent Growth [25]: 46.61%; Percent Growth [26]: 99.09%
